Results: patent US7713994B2 (Wyeth LLC, priority 2005, dated 2010)
Like-named read-outs stand apart in the source and are kept apart here.

What was measured:
[1] = tested on: BT474; experiment: Cytotoxicity assay (SRB), BT474; format: cell-based
Method: (§1) BT474, HCT-116, LoVo and MCF-7 were maintained under 7% CO2 in RPMI 1640 medium supplemented with 10% fetal bovine serum and 50 µg/ml gentamicin.
(§2) Cells were plated in 96-well microtiter dishes (12000 cells/well for BT474, 4000 cells/well for HCT-116, 6000 cells/well for LoVo and 6000 cells/well for MCF-7) in RPMI 1640 medium containing 5% fetal bovine serum and 50 µg/ml gentamicin. The cells were allowed to incubate overnight at 37° C., 7% CO2. Compound dilutions were prepared using the same medium. HCT-116, LoVo and MCF-7 cells were cultured for three days and BT474 cells were cultured for 6 days, in the presence of each compound dilution. Untreated cells were included as controls. The percentage of surviving cells was determined using a protein binding dye (sulforhodamineB, SRB) assay. Cellular protein was precipitated in each well by the addition of 0.05 ml of 50% cold trichloroacetic acid (TCA). After 1 hour, the plates were washed extensively in dH2O and dried. The sulforhodamineB dye solution (0.08 mL of 0.4% SRB in 1% acetic acid) was added to each well, kept at room temperature for ten minutes, then washed in 1% acetic acid and dried. The dye was dissolved in 10 mM Tris-HCl (150 uL) and the absorbency read at 540 nm.

[2] = tested on: HCT-116; experiment: Cytotoxicity assay (SRB), HCT-116; format: cell-based; conditions: Homo sapiens, HCT-116, 72 h, HCT116 cells, SRB, read-out: In Vitro Cellular Activity IC50 HCT116
Method: as §1, §2

[3] = tested on: MCF-7; experiment: Cytotoxicity assay (SRB), MCF-7; format: cell-based; conditions: Homo sapiens, MCF7, 72 h, MCF-7 cells, SRB, read-out: In Vitro Cellular Activity IC50 MCF-7
Method: as §1, §2

[4] = tested on: LoVo; experiment: Cytotoxicity assay (SRB), LoVo; format: cell-based; conditions: Homo sapiens, LoVo, 72 h, LoVo cells, SRB, read-out: In Vitro Cellular Activity IC50 LOVO
Method: as §1, §2

[5] = target: T1, cyclin D1/cdk 4 enzyme (Homo sapiens, UniProt P11802); experiment: CDK4 ELISA kinase assay (phospho-Rb ser 795 detection); format: biochemical; conditions: In Vitro Enzyme Assay, cyclin D1/cdk 4, read-out: CDK4 IC50
T1 construct: made in house; host or cells: Sf9 insect cells, recombinant baculovirus
Procedure, shortened: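 Screening was done at 10 ug/ml compound. Each partially purified cyclin/CDK complex, produced in baculovirus-infected Sf9 cells, phosphorylated a coated GST-Rb C-terminal fragment with 200 μM ATP, and Ser795 phosphorylation was quantified by HRP-ELISA at 450 nm.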

[6] = Homo sapiens, BT-474, 144 h, BT474 cells, SRB, 6 days; read-out: In Vitro Cellular Activity IC50 BT474
[7] = Homo sapiens, BT-474, 144 h, BT474 cells, 6 days, SRB; read-out: In Vitro Cellular Activity IC50 BT474

T1 sequence (P11802 whole entry, species assumed): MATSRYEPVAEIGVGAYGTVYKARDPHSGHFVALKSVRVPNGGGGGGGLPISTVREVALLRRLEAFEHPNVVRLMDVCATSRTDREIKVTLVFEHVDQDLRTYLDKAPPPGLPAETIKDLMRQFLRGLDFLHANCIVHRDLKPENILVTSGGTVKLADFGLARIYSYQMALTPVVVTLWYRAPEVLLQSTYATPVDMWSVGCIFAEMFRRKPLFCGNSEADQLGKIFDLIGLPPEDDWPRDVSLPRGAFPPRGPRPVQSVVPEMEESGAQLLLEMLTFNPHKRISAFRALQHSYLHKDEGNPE
T1 sequence (P24385 whole entry partner, species assumed): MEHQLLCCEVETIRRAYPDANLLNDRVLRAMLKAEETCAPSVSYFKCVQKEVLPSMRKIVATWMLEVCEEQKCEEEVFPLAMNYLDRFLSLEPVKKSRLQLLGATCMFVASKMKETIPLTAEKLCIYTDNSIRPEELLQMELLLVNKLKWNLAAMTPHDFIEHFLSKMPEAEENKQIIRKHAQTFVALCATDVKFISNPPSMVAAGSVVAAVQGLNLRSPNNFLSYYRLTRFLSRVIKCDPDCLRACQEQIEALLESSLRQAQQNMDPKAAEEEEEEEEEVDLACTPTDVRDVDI

| SMILES | IC50 [1, 6] [µM] | IC50 ([2]; three days) [µM] | IC50 ([3]; three days) [µM] | IC50 ([4]; three days) [µM] | IC50 [1, 7] [µM] | IC50 ([2]; 3 days) [µM] | IC50 ([3]; 3 days) [µM] | IC50 ([4]; 3 days) [µM] | IC50 [5] [µM] |
| --- | --- | --- | --- | --- | --- | --- | --- | --- | --- |
| O=C1NC(=O)c2ccc(Br)cc2/C1=C/NCc1ccc(NC(=O)C(Cl)Cl)cc1 [Example 302, N-[4-({[(Z)-(6-Bromo-1,3-dioxo-2,3-dihydroisoquinolin-4(1H)-ylidene)methyl]amino}methyl)phenyl]-2,2-dichloroacetamide] | 0.56 | 0.55 | 1.2 | 0.59 | – | – | – | – | – |
| O=C1NC(=O)c2ccc(Br)cc2C1=CNc1ccc(-c2ccncc2)cc1 [Example 329, 6-Bromo-4-[(4-pyridin-4-yl-phenylamino)-methylene]-4H-isoquinoline-1,3-dione] | 18.5 | 4.7 | 14 | 30 | – | – | – | – | – |
| CC(C)(C)OC(=O)N1CCN(c2ccc(N/C=C3\C(=O)NC(=O)c4ccc(I)cc43)cc2)CC1 [Example 377, tert-Butyl 4-(4-{[(Z)-(6-iodo-1,3-dioxo-2,3-dihydroisoquinolin-4(1H)-ylidene)methyl]amino}phenyl)piperazine-1-carboxylate] | > 50 | 11 | > 50 | > 50 | – | – | – | – | – |
| O=C1NC(=O)c2ccc(I)cc2/C1=C/Nc1ccc(C2=NCCC2)cc1 [Example 403, 4-{[4-(4,5-Dihydro-3H-pyrrol-2-yl)-phenylamino]-methylene}-6-iodo-4H-isoquinoline-1,3-dione] | – | – | – | – | 40 | 41.5 | > 50 | > 50 | – |
| CC(C)(C)OC(=O)N1CCN(c2ccc(N/C=C3\C(=O)NC(=O)c4ccc(I)cc43)cn2)CC1 [Example 409, tert-Butyl 4-(5-{[(Z)-(6-iodo-1,3-dioxo-2,3-dihydroisoquinolin-4(1H)-ylidene)methyl]amino}pyridin-2-yl)piperazine-1-carboxylate] | – | – | – | – | 41.6 | 25.6 | 36.6 | 6.4 | – |
| CN1CCN(c2ccc(N/C=C3\C(=O)NC(C)(C)c4ccc(Br)cc43)cc2)CC1 [Example 452, 6-Bromo-1,1-dimethyl-4-{[4-(4-methyl-piperazin-1-yl)-phenylamino]-methylene}-1,4-dihydro-2H-isoquinolin-3-one] | – | – | – | – | 9.3 | 3.1 | 3.3 | 1.5 | – |
| CN1CCN(c2ccc(N/C=C3\C(=O)NC(C)(C)c4ccc(-c5ccoc5)cc43)cc2)CC1 [Example 458, 6-Furan-3-yl-1,1-dimethyl-4-{[4-(4-methyl-piperazin-1-yl)-phenylamino]-methylene}-1,4-dihydro-2H-isoquinolin-3-one] | – | – | – | – | 3.5 | 2.7 | 4.2 | 1.2 | – |
| CC(C)(C)OC(=O)N1CCCC1c1ccc(N/C=C2\C(=O)NC(=O)c3ccc(I)cc32)cc1 (stereo not shown) [Example 461, 2-{4-[(6-Iodo-1,3-dioxo-2,3-dihydro-1H-isoquinolin-4-ylidenemethyl)-amino]-phenyl}-pyrrolidine-1-carboxylic acid tert-butyl ester] | – | – | – | – | 7.7 | 22.8 | 23.3 | 24.1 | – |
| COc1cnc(CN/C=C2\C(=O)NC(=O)c3ccc(I)cc32)nc1O [Example 479, 4-{[(4-Hydroxy-5-methoxy-pyrimidin-2-ylmethyl)-amino]-methylene}-6-iodo-4H-isoquinoline-1,3-dione] | – | – | – | – | 43 | > 50 | > 50 | > 50 | – |
| O=C1NC(=O)c2ccc(I)cc2/C1=C/NCc1ccc(-c2ccccn2)c(O)c1 [Example 509, 4-[(3-Hydroxy-4-pyridin-2-yl-benzylamino)-methylene]-6-iodo-4H-isoquinoline-1,3-dione] | – | – | – | – | 0.13 | 0.25 | 0.54 | 0.19 | – |
| O=C1NC(=O)c2ccc(I)cc2/C1=C/NCc1ccc(-c2ccncc2)c(O)c1 [Example 511, 4-[(3-Hydroxy-4-pyridin-4-yl-benzylamino)-methylene]-6-iodo-4H-isoquinoline-1,3-dione] | – | – | – | – | 2.5 | 2.3 | 1.5 | 2.5 | – |
| N#CCc1ccc(NC=C2C(=O)NC(=O)c3ccc(-c4cc5ccccc5o4)cc32)cc1 [Example 626, {4-[(6-Benzofuran-2-yl-1,3-dioxo-2,3-dihydro-1H-isoquinolin-4-ylidenemethyl)-amino]-phenyl}-acetonitrile] | – | – | – | – | > 50 | > 50 | 34.1 | > 50 | 3.7 |
| N#CCc1ccc(NC=C2C(=O)NC(=O)c3ccc(-c4cc5ccccc5s4)cc32)cc1 [Example 627, {4-[(6-Benzo[b]thiophen-2-yl-1,3-dioxo-2,3-dihydro-1H-isoquinolin-4-ylidenemethyl)-amino]-phenyl}-acetonitrile] | – | – | – | – | 4.3 | > 50 | 7.3 | > 50 | 10.4 |
| N#CCc1ccc(NC=C2C(=O)NC(=O)c3ccc(-c4ccc5[nH]ccc5c4)cc32)cc1 [Example 629, (4-{[6-(1H-Indol-5-yl)-1,3-dioxo-2,3-dihydro-1H-isoquinolin-4-ylidenemethyl]-amino}-phenyl)-acetonitrile] | – | – | – | – | > 50 | > 50 | 50 | > 50 | 5.5 |
| NS(=O)(=O)c1ccc(CNC=C2C(=O)NC(=O)c3ccc(-c4ccc5ccccc5c4)cc32)cc1 [Example 632, 4-{[(6-Naphthalen-2-yl-1,3-dioxo-2,3-dihydro-1H-isoquinolin-4-ylidenemethyl)-amino]-methyl}-benzenesulfonamide] | – | – | – | – | > 50 | > 50 | 17.3 | 44.6 | 3.1 |
| NS(=O)(=O)c1ccc(CNC=C2C(=O)NC(=O)c3ccc(-c4cc5ccccc5o4)cc32)cc1 [Example 634, 4-{[(6-Benzofuran-2-yl-1,3-dioxo-2,3-dihydro-1H-isoquinolin-4-ylidenemethyl)-amino]-methyl}-benzenesulfonamide] | – | – | – | – | 47.8 | 19.1 | > 50 | 8.5 | 9.9 |
| NS(=O)(=O)c1ccc(CNC=C2C(=O)NC(=O)c3ccc(-c4csc5ccccc45)cc32)cc1 [Example 636, 4-{[(6-Benzo[b]thiophen-3-yl-1,3-dioxo-2,3-dihydro-1H-isoquinolin-4-ylidenemethyl)-amino]-methyl}-benzenesulfonamide] | – | – | – | – | 39.7 | 31.2 | 18.4 | 15.8 | 3.4 |
| O=C1NCc2cc(Cl)ccc2C1=CNc1cccc(O)c1 [Example 856, 7-Chloro-4-[(3-hydroxy-phenylamino)-methylene]-1,4-dihydro-2H-isoquinolin-3-one] | – | – | – | – | 5.6 | 12.2 | 3.8 | 13.5 | – |
| Cc1ccc2c(c1)CNC(=O)C2=CNc1ccc(N2CCOCC2)cc1 [Example 858, 7-Methyl-4-[(4-morpholin-4-yl-phenylamino)-methylene]-1,4-dihydro-2H-isoquinolin-3-one] | – | – | – | – | 34.3 | 37.7 | 34.7 | 39 | – |
| O=C1NCc2ccccc2C1=CNc1cccc(O)c1 [Example 859, 4-[(3-Hydroxy-phenylamino)-methylene]-1,4-dihydro-2H-isoquinolin-3-one] | – | – | – | – | 31.2 | 40.4 | 20.6 | 40 | – |
| O=C1NCc2ccccc2C1=CNc1ccc(N2CCCCC2)cc1 [Example 860, 4-[(4-Piperidin-1-yl-phenylamino)-methylene]-1,4-dihydro-2H-isoquinolin-3-one] | – | – | – | – | 35.2 | 33 | 40 | 36.1 | – |
| COC(=O)Oc1cc(CN/C=C2\C(=O)NC(=O)c3ccc(Br)cc32)ccc1OC [compound 83, 5-({[(Z)-(6-Bromo-1,3-dioxo-2,3-dihydroisoquinolin-4(1H)-ylidene)methyl]amino}methyl)-2-methoxyphenyl methyl carbonate] | 3.2 | 4.5 | 29.9 | 2.6 | – | – | – | – | – |
